{"source": "patent US20180355033A1", "about": "“ANTIBODIES, COMPOUNDS AND SCREENS FOR IDENTIFYING AND TREATING CACHEXIA OR PRE-CACHEXIA” (Dana-Farber Cancer Institute, Inc., priority 2015, published 2018)", "molecules": {"B1": {"name": "S100 A7: recombinant RAGE ligand of the S100 family (protein, UniProt P31151 2-101, looked up)", "Protein S100-A7": "SNTQAERSIIGMIDMFHKYTRRDDKIEKPSLLTMMKENFPNFLSACDKKGTNYLADVFEKKDKNEDKKIDFSEFLSLLGDIATDYHKQSHGAAPCSGGSQ"}, "B2": {"name": "A9: recombinant RAGE ligand of the S100 family (protein, UniProt P06702 1-114, looked up)", "Protein S100-A9": "MTCKMSQLERNIETIINTFHQYSVKLGHPDTLNQGEFKELVRKDLQNFLKKENKNEKVIEHIMEDLDTNADKQLSFEEFIMLMARLTWASHEKMHEGDEGPGHHHKPGLGEGTP"}, "B3": {"name": "S100B: recombinant S100 family RAGE ligand (protein, UniProt P04271 2-92, looked up)", "Protein S100-B": "SELEKAMVALIDVFHQYSGREGDKHKLKKSELKELINNELSHFLEEIKEQEVVDKVMETLDNDGDGECDFQEFMAFVAMVTTACHEFFEHE"}, "B4": {"name": "HMGB1: high mobility group box 1, RAGE ligand (protein, UniProt P09429 1-215, looked up)", "High mobility group protein B1": "MGKGDPKKPRGKMSSYAFFVQTCREEHKKKHPDASVNFSEFSKKCSERWKTMSAKEKGKFEDMAKADKARYEREMKTYIPPKGETKKKFKDPNAPKRPPSAFFLFCSEYRPKIKGEHPGLSIGDVAKKLGEMWNNTAADDKQPYEKKAAKLKEKYEKDIAAYRAKGKPDAAKKGVVKAEKSKKKKEEEEDEEDEEDEEEEEDEEDEDEEEDDDDE"}, "B5": {"name": "A8: recombinant RAGE ligand of the S100 family (protein, UniProt P05109 1-93, looked up)", "Protein S100-A8": "MLTELEKALNSIIDVYHKYSLIKGNFHAVYRDDLKKLLETECPQYIRKKGADVWFKELDINTDGAVNFQEFLILVIKMGVAAHKKSHEESHKE"}}, "key": {"RAGE [1]": {"biological_target": "T1, RAGE (Homo sapiens, UniProt Q15109)", "T1 sequence (Q15109 23-404)": "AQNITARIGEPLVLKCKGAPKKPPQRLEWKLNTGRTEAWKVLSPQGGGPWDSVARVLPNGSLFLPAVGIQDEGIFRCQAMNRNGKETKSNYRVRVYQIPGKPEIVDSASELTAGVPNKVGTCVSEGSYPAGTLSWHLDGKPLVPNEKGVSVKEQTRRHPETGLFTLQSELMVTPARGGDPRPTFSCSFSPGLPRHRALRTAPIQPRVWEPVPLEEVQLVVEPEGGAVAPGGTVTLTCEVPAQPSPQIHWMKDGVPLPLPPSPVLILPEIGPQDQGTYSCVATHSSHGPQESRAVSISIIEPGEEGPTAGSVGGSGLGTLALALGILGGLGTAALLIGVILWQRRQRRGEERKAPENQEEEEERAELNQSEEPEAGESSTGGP", "conditions": "cited from earlier work"}, "A-beta brain entry": {"tested_on": "A-beta brain entry", "conditions": "in vivo; cited from earlier work"}, "HSkM": {"tested_on": "HSkM", "assay": "Functional testing in Cachexia Assay (HSkM functional assay)", "assay_type": "cell-based, human", "conditions": "FIG. 25", "text": "This implies that the modeled Ab epitope is likely a functional focused target for Ab therapy and that this is the basis for further small molecule therapeutic development for cancer cachexia and other RAGE mediated diseases."}, "V domain of RAGE": {"biological_target": "V domain of RAGE (Homo sapiens, UniProt Q15109)", "sequence (Q15109 23-116 limits assumed)": "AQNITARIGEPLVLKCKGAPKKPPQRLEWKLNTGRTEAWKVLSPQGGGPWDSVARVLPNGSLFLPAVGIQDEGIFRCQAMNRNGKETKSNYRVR", "conditions": "cited from earlier work"}, "RAGE-expressing cells": {"tested_on": "RAGE-expressing cells", "conditions": "RAGE-expressing cells in vitro and mouse brain in vivo; cited from earlier work"}, "rat model of ICH": {"tested_on": "rat model of ICH", "conditions": "cited from earlier work"}, "RAGE [2]": {"biological_target": "T1, RAGE", "assay": "Direct immunoprecipitation with RAGE", "assay_type": "binding", "conditions": "direct immunoprecipitation experiments"}, "[3]": {"tested_on": "Primary human myoblast differentiated into terminal myotubes", "assay": "Cachexia induction by recombinant S100/HMGB1 ligands, myosin HC in-cell Western", "assay_type": "cell-based", "conditions": "recombinant ligand applied each day for 3 days", "procedure": "FIGS. 1-3 illustrate the effect of various proteins of the S100 family, as well as HMGB1, as cachexia inducers when compared with cachexia-inducing media. Primary human myoblast were plated and differentiated into terminal myotubes as previously described. Recombinant ligands were prepared at the same dose curve in Hanks Balance Salt Solution (buffer) and applied 1:2 v:v to fresh maintenance media each day for 3 days. Cells were assessed for myosin HC content by in-cell Western staining as previously described."}}, "note": "“Also recorded” adds a separate entry of the source.", "data": [{"molecule": "CCN(CC)CCOc1cccc(Nc2nc(C)cc(-c3ccc(OCCC4CCCCC4)cc3)n2)c1", "note": "[Compound 53, 4-(4-(2-cyclohexylethoxy)phenyl)-N-(3-(2-(diethylamino)ethoxy)-phenyl)-6-methylpyrimidin-2-amine]", "values": [{"measurement": "affinity to ligand", "setting": "RAGE [1]", "value": "highest affinity to ligand"}]}, {"molecule": "CCN(CC)CCOc1cccc(Nc2nc(-c3ccc(Cl)cc3)cc(-c3ccc(Cl)cc3)n2)c1", "note": "[Compound 59, 4,6-bis(4-chlorophenyl)-N-(3-(2-(diethylamino)ethoxy)phenyl)-pyrimidin-2-amine]", "values": [{"measurement": "affinity to ligand", "setting": "RAGE [1]", "value": "highest affinity to ligand"}, {"measurement": "inhibition (not further specified)", "setting": "RAGE [1]", "value": "most significant inhibition"}, {"measurement": "A-beta brain entry inhibition", "setting": "A-beta brain entry", "value": "most potent A-beta brain entry inhibition"}]}, {"molecule": "CCN(CC)CCOc1ccccc1Nc1nc(-c2ccc(Cl)cc2)cc(-c2ccc(Cl)cc2)n1", "note": "[Compound 60, 4,6-bis(4-chlorophenyl)-N-(2-(2-(diethylamino)ethoxy)phenyl)-pyrimidin-2-amine]", "values": [{"measurement": "affinity to ligand", "setting": "RAGE [1]", "value": "highest affinity to ligand"}, {"measurement": "in vitro activity", "setting": "RAGE [1]", "value": "best in vitro activity"}]}, {"molecule": "CCCCCC(=Cc1ccccc1)CN(CCc1c[nH]c2ccccc12)C(=O)c1ccc(Cl)c([N+](=O)[O-])c1", "note": "[FPS3]", "values": [{"measurement": "inhibition of cachexia phenotype", "setting": "HSkM", "value": "inhibits cachexia phenotype"}]}, {"molecule": "O=C(c1ccc(Cl)cc1)N(Cc1ccccc1)C1CCCCC1", "note": "[FPS-ZM1]", "values": [{"measurement": "blocking of Aβ binding to the V domain of RAGE", "setting": "V domain of RAGE", "value": "blocked A13 binding to the V domain of RAGE"}, {"measurement": "inhibition of Aβ40- and Aβ42-induced cellular stress", "setting": "RAGE-expressing cells", "value": "inhibited A1340- and A1342-induced cellular stress"}, {"measurement": "BBB damage, brain edema, motor dysfunction, nerve fiber injury", "setting": "rat model of ICH; rat ICH model, FPS-ZM1 administration", "value": "significant improvements of BBB damage, brain edema, motor dysfunction, and nerve fiber injury"}, {"measurement": "FeCl2-induced RAGE and nuclear factor κB p65 upregulation", "setting": "rat model of ICH; rat, in vivo", "value": "reversed FeCl2-induced RAGE and nuclear factor κB p65 upregulation"}]}, {"molecule": "S100A8/A9: recombinant S100A8/A9 (Calprotectin)", "values": [{"measurement": "direct binding to RAGE", "setting": "RAGE [2]", "value": "directly bind to RAGE"}, {"measurement": "induction of the cachectic phenotype (myosin HC content)", "setting": "[3]", "value": "capable of inducing the cachexia phenotype"}]}, {"molecule": "B1", "values": [{"measurement": "direct binding to RAGE", "setting": "RAGE [2]", "value": "directly bind to RAGE"}, {"measurement": "induction of the cachectic phenotype (myosin HC content)", "setting": "[3]", "value": "inducers of the cachectic phenotype"}, {"measurement": "induction of the cachectic phenotype (myosin HC content)", "setting": "[3]; listed as S100A7", "value": "capable of inducing the cachexia phenotype"}]}, {"molecule": "B2", "values": [{"measurement": "induction of the cachectic phenotype (myosin HC content)", "setting": "[3]", "value": "inducers of the cachectic phenotype"}]}, {"molecule": "B3", "values": [{"measurement": "induction of the cachectic phenotype (myosin HC content)", "setting": "[3]", "value": "little or no activity in inducing cachexia; also recorded: do not induce precachexia and/or cachexia"}]}, {"molecule": "B4", "values": [{"measurement": "induction of the cachectic phenotype (myosin HC content)", "setting": "[3]", "value": "do not induce precachexia and/or cachexia; also recorded: not cachexogenic in muscle; also recorded: cannot; also recorded: does not induce the cachectic phenotype"}]}, {"molecule": "B5", "values": [{"measurement": "induction of the cachectic phenotype (myosin HC content)", "setting": "[3]", "value": "inducers of the cachectic phenotype"}]}]}
